Test results: patent publication US11352340B2, “Pyridine and pyridimine compounds as PI3K-gamma inhibitors” (Incyte Corporation, priority 2016, dated 2022)
Where a name gives a salt, the structure may show the parent alone.

Experiments:
[1] = target: PI3Kδ (p110δ/p85α) Recombinant Human Protein (Homo sapiens (Human), UniProt O00329); experiment: PI3Kδ Scintillation Proximity Assay; type: biochemical; details: read-out: PI3K-delta SPA IC50
Description: Example C. PI3Kδ Scintillation Proximity Assay
(§1) [γ-^33P]ATP (10 mCi/mL) and Wheat Germ Agglutinin (WGA) YSi SPA Scintillation Beads was purchased from Perkin-Elmer (Waltham, Mass.). Lipid kinase substrate, D-myo-Phosphatidylinositol 4,5-bisphosphate (PtdIns(4,5)P2)D (+)-sn-1,2-di-O-octanoylglyceryl, 3-O-phospho linked (PIP2), CAS 204858-53-7, was purchased from Echelon Biosciences (Salt Lake City, Utah). PI3Kδ (p110δ/p85α) Recombinant Human Protein was purchased from Eurofins (St Charles, Mo.). ATP, MgCl2, DTT, EDTA, MOPS and CHAPS were purchased from Sigma-Aldrich (St. Louis, Mo.).
(§2) The kinase reaction was conducted in polystyrene 384-well Greiner Bio-one white plate from Thermo Fisher Scientific in a final volume of 25 μL. Inhibitors were first diluted serially in DMSO and added to the plate wells before the addition of other reaction components. The final concentration of DMSO in the assay was 2%. The PI3Kδ assay was carried out at room temperature in 20 mM MOPS, pH 6.7, 10 mM MgCl2, 5 mM DTT and CHAPS 0.03%. Reactions were initiated by the addition of ATP, the final reaction mixture consisted of 20 μM PIP2, 2 μM ATP, 0.5 μCi [γ-^33P] ATP, 3.4 nM PI3Kδ. Reactions were incubated for 120 min and terminated by the addition of 40 μL SPA beads suspended in quench buffer: 163 mM potassium phosphate pH 7.8, 20% glycerol, 25 mM EDTA. The final concentration of SPA beads is 1.0 mg/mL. After the plate sealing, plates were shaken overnight at room temperature and centrifuged at 1500 rpm for 10 min, the radioactivity of the product was determined by scintillation counting on Topcount (Perkin-Elmer). IC50 determination was performed by fitting the curve of percent of the solvent control activity versus the log of the inhibitor concentration using the GraphPad Prism 6.0 software.

[2] = target: PI3Kγ (p110γ) Recombinant Human Protein (Homo sapiens (Human), UniProt P48736); experiment: PI3K-γ Scintillation Proximity Assay; type: biochemical; details: read-out: PI3K-gamma SPA IC50
PI3Kγ (p110γ) Recombinant Human Protein, sequence (P48736 whole entry): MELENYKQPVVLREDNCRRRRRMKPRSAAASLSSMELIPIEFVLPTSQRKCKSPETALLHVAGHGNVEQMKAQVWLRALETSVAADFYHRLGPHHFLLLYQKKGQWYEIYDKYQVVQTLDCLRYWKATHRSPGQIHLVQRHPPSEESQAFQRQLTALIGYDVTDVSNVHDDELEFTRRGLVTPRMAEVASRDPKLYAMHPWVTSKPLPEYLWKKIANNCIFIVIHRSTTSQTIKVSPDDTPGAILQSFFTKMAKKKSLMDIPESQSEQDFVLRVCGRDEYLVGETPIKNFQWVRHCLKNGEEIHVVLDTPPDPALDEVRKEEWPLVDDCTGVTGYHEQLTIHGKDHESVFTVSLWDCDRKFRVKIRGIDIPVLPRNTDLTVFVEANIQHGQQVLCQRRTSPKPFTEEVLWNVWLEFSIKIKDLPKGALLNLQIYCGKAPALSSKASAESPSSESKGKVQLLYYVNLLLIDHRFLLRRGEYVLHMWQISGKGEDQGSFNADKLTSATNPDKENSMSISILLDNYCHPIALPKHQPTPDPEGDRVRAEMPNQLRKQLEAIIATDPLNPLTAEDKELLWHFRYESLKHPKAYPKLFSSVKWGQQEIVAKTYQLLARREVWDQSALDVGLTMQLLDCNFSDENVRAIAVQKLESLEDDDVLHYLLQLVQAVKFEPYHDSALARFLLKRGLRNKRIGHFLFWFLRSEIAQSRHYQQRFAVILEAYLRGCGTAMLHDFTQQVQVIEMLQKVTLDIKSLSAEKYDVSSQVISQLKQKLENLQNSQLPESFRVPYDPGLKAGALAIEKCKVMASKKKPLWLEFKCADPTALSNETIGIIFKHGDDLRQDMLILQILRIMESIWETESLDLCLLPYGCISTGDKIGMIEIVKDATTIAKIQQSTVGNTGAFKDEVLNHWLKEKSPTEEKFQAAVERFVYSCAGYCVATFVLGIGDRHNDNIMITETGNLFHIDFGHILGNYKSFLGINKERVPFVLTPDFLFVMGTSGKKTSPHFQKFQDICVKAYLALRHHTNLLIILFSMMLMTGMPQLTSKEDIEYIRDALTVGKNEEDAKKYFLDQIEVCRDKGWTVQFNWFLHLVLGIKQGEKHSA
Description: Example B. PI3K-γ Scintillation Proximity Assay
as §1, with “PI3Kγ (p110γ)” for “PI3Kδ (p110δ/p85α)”, “Life technology (Grand Island, N.Y.).” for “Eurofins (St Charles, Mo.).”
as §2, with “PI3Kγ” for “PI3Kδ”, “13” for “3.4”, “PI3Kγ.” for “PI3Kδ.”

PI3Kδ (p110δ/p85α) Recombinant Human Protein, sequence (O00329 whole entry): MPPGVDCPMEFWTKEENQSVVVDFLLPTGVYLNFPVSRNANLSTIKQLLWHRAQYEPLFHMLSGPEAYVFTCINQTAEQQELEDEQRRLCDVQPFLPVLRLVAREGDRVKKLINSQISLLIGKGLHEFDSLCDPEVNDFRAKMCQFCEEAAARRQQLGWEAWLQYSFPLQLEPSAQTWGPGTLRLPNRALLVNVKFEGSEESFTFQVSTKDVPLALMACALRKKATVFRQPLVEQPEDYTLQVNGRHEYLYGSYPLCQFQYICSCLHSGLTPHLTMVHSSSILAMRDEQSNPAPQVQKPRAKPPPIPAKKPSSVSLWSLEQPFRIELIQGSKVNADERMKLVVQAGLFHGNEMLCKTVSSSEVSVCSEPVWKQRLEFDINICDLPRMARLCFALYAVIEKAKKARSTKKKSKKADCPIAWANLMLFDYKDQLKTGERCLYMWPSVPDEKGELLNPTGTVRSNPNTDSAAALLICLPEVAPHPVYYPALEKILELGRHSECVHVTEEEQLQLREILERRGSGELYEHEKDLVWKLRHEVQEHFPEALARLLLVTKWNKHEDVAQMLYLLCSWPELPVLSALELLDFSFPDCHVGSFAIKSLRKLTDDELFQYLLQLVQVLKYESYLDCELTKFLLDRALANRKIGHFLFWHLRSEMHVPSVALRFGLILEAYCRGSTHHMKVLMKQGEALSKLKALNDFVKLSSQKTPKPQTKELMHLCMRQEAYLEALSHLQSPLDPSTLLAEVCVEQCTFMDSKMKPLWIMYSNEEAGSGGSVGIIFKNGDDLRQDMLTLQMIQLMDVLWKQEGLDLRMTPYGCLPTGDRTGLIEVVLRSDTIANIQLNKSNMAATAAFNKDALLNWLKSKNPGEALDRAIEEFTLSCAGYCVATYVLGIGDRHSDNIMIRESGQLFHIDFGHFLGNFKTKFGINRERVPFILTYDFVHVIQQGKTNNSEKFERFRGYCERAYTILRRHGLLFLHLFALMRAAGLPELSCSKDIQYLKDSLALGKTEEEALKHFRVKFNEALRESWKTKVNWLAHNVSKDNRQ
PI3Kδ (p110δ/p85α) Recombinant Human Protein, sequence (P27986 whole entry partner): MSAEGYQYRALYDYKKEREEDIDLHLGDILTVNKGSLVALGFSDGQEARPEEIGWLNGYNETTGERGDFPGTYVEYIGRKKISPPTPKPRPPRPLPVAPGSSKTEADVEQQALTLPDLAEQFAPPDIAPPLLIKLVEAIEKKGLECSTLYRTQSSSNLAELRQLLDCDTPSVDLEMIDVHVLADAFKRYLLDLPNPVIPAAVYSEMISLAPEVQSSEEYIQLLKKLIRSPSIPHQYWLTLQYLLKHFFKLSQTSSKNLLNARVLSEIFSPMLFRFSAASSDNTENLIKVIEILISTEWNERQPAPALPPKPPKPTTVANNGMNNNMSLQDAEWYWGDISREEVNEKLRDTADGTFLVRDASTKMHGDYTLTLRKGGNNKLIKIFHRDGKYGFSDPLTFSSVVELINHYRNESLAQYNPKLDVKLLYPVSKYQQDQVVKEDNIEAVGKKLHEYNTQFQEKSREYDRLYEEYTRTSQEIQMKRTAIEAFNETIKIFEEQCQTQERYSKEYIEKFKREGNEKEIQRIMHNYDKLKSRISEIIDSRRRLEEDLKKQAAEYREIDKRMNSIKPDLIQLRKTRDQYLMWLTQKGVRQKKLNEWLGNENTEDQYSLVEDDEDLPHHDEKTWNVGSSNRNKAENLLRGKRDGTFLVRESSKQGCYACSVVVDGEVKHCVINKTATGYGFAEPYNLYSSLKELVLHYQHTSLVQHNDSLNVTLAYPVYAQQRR

SMILES	IC50 [1] [nM]	IC50 [2] [nM]
O=C(Cn1cc(-c2ccnc(-c3ncc(-c4ccccc4)[nH]3)c2)cn1)N1CCCC1 [Example 50, 2-(4-(2-(5-Phenyl-1H-imidazol-2-yl)pyridin-4-yl)-1H-pyrazol-1-yl)-1-(pyrrolidin-1-yl)ethanone trifluoroacetate salt]	> 500	> 500
CC(C)c1cnc(-c2cc(-c3cncc(N4CCOCC4)c3)ccn2)[nH]1 [Example 101, 4-(2′-(5-Isopropyl-1H-imidazol-2-yl)-3,4′-bipyridin-5-yl)morpholine trifluoroacetate salt]	≤ 500	≤ 500
Cn1ccnc1-c1ccnc(-c2ncc(-c3ccccc3)[nH]2)c1 [Example 16, 4-(1-Methyl-1H-imidazol-2-yl)-2-(5-phenyl-1H-imidazol-2-yl)pyridine trifluoroacetate salt]	> 500	> 500
O=C(CCn1cc(-c2ccnc(-c3ncc(-c4ccccc4)[nH]3)c2)cn1)NC1CCCC1 [Example 59, N-cyclopentyl-3-(4-(2-(5-phenyl-1H-imidazol-2-yl)pyridin-4-yl)-1H-pyrazol-1-yl)propanamide trifluoroacetate salt]	> 500	> 500
CCS(=O)(=O)n1cc(-c2ccnc(-c3ncc(-c4ccccc4)[nH]3)c2)cn1 [Example 45, 4-(1-(Ethylsulfonyl)-1H-pyrazol-4-yl)-2-(5-phenyl-1H-imidazol-2-yl)pyridine trifluoroacetate salt]	≤ 500	≤ 500
COc1cncc(-c2cc(-c3nc4ccccc4[nH]3)ncn2)c1 [Example 95, trifluoroacetate salt]	> 500	> 500
CS(=O)(=O)N1CCC(c2c[nH]c(-c3cc(-c4cnn(Cc5ccc(Cl)cc5)c4)ccn3)n2)C1 (single isomer, unassigned) [Example 304, 4-[1-(4-Chlorobenzyl)-1H-pyrazol-4-yl]-2-{4-[1-(methylsulfonyl)pyrrolidin-3-yl]-1H-imidazol-2-yl}pyridine trifluoroacetate salt]	≤ 500	≤ 100
N#Cc1cccc(Cn2cc(-c3ccnc(-c4ncc(-c5ccccc5)[nH]4)c3)cn2)c1 [Example 20, 3-((4-(2-(5-Phenyl-1H-imidazol-2-yl)pyridin-4-yl)-1H-pyrazol-1-yl)methyl)benzonitrile trifluoroacetate salt]	> 500	≤ 500
N#CCCn1cc(-c2ccnc(-c3ncc(-c4ccccc4)[nH]3)c2)cn1 [Example 52, 3-(4-(2-(5-Phenyl-1H-imidazol-2-yl)pyridin-4-yl)-1H-pyrazol-1-yl)propanenitrile trifluoroacetate salt]	≤ 500	> 500
O=S(=O)(c1ccccc1)N1CCC(c2c[nH]c(-c3cc(-c4cnn(Cc5ccc(Cl)cc5)c4)ccn3)n2)C1 (stereo not drawn) [Example 305, 4-[1-(4-Chlorobenzyl)-1H-pyrazol-4-yl]-2-{4-[1-(phenylsulfonyl)pyrrolidin-3-yl]-1H-imidazol-2-yl}pyridine trifluoroacetate salt]	≤ 500	≤ 500

Other lines, results leading:

IC50 [1] [nM]	IC50 [2] [nM]	SMILES
> 500	> 500	Cc1nc(-c2cc(C3=CCN(Cc4ccccc4)C3)ccn2)[nH]c1C [Example 228, 4-(1-Benzyl-2,5-dihydro-1H-pyrrol-3-yl)-2-(4,5-dimethyl-1H-imidazol-2-yl)pyridine trifluoroacetate salt]
> 500	> 500	Cc1nc(-c2cc(C3=CCN(S(C)(=O)=O)C3)ccn2)[nH]c1C [Example 227, 2-(4,5-Dimethyl-1H-imidazol-2-yl)-4-(1-(methylsulfonyl)-2,5-dihydro-1H-pyrrol-3-yl)pyridine trifluoroacetate salt]
> 500	≤ 500	Cc1nc(-c2cc(-c3cncc(C4=CCN(C(=O)OC(C)(C)C)C4)c3)ccn2)[nH]c1C [Example 235, tert-Butyl 3-[2′-(4,5-dimethyl-1H-imidazol-2-yl)-3,4′-bipyridin-5-yl]-2,5-dihydro-1H-pyrrole-1-carboxylate]
≤ 500	≤ 500	N#Cc1ccc(C(=O)Nc2cncc(-c3ccnc(-c4ncc(-c5ccccc5)[nH]4)c3)c2)cc1 [Example 137, 4-Cyano-N-(2′-(5-phenyl-1H-imidazol-2-yl)-3,4′-bipyridin-5-yl)benzamide]
≤ 50	> 500	Cc1[nH]c(-c2cc(-c3cncc(N4CCOCC4)c3)ccn2)nc1CN(C)C [Example 289, N,N-Dimethyl-1-[5-methyl-2-(5-morpholin-4-yl-3,4′-bipyridin-2′-yl)-1H-imidazol-4-yl]methanamine]
≤ 500	> 500	CC(=O)N1CC=C(c2cncc(-c3ccnc(-c4nc(C)c(C)[nH]4)c3)c2)C1 [Example 238, 1-(3-(2′-(4,5-Dimethyl-1H-imidazol-2-yl)-3,4′-bipyridin-5-yl)-2,5-dihydro-1H-pyrrol-1-yl)ethanone]
> 500	> 500	Cc1nc(-c2cc(C3=CCCN(C(=O)c4ccccc4)C3)ccn2)[nH]c1C [Example 222, (3-(2-(4,5-Dimethyl-1H-imidazol-2-yl)pyridin-4-yl)-5,6-dihydropyridin-1(2H)-yl)(phenyl)methanone trifluoroacetate salt]
≤ 100	≤ 500	Cc1nc(-c2cc(-c3cncc(C(=O)N4CCN(C(N)=O)CC4)c3)ccn2)[nH]c1C [Example 150, 4-(2′-(4,5-Dimethyl-1H-imidazol-2-yl)-3,4′-bipyridine-5-carbonyl)piperazine-1-carboxamide]
≤ 500	≤ 500	N#Cc1cccc(C(=O)Nc2cncc(-c3ccnc(-c4ncc(-c5ccccc5)[nH]4)c3)c2)c1 [Example 136, 3-Cyano-N-(2′-(5-phenyl-1H-imidazol-2-yl)-3,4′-bipyridin-5-yl)benzamide]
≤ 500	≤ 500	Cc1[nH]c(-c2cc(-c3cncc(N4CCOCC4)c3)ccn2)nc1C(=O)N(C)C1CCOC1 (racemic) [Example 261, N,5-Dimethyl-2-(5-morpholin-4-yl-3,4′-bipyridin-2′-yl)-N-(tetrahydrofuran-3-yl)-1H-imidazole-4-carboxamide]
≤ 500	≤ 500	CCN(C)C(=O)c1nc(-c2cc(-c3cncc(N4CCOCC4)c3)ccn2)[nH]c1C [Example 260, N-Ethyl-N,5-dimethyl-2-(5-morpholin-4-yl-3,4′-bipyridin-2′-yl)-1H-imidazole-4-carboxamide]
≤ 100	≤ 100	Cc1nc(-c2cc(-c3cncc(C(=O)N4CCC(O)CC4)c3)ccn2)[nH]c1C [Example 177, 1-{[2′-(4,5-Dimethyl-1H-imidazol-2-yl)-3,4′-bipyridin-5-yl]carbonyl}piperidin-4-ol]
≤ 50	≤ 500	COc1ccccc1Nc1nc(-c2cc(-c3cncc(N4CCOCC4)c3)ccn2)[nH]c1C [Example 307, N-(2-Methoxyphenyl)-5-methyl-2-(5-morpholin-4-yl-3,4′-bipyridin-2′-yl)-1H-imidazol-4-amine Trifluoroacetate Salt]
> 500	≤ 500	Cc1nc(-c2cc(C3CCCN(S(=O)(=O)c4ccccc4)C3)ccn2)[nH]c1C (racemic) [Example 215, 2-(4,5-Dimethyl-1H-imidazol-2-yl)-4-[1-(phenylsulfonyl)piperidin-3-yl]pyridine Trifluoroacetate Salt]
